From PubChem BioAssay AID248 (DTP/NCI, 2004)
Values joined by “and” are separate entries in the source; they are usually repeats but may differ in a detail not shown here. Identical values can stand only once. Inconclusive results and toxic doses are left out. No stated cut-off is given here; in the data, active means T/C of 150% or more; inactive means T/C below 125%.

System: L1210 leukemia ip in BDF1 mice, survival T/C
Test: NCI In Vivo Anticancer Drug Screen. Data for tumor model L1210 Leukemia (intraperitoneal) in B6D2F1 (BDF1) mice
Details: endpoint: mean survival time, higher = longer survival
Method in brief: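 Each compound was tested against a transplantable tumor grown in mice. The endpoint was survival, with treated animals benchmarked against vehicle controls as a simple ratio.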

[1] = dose: 100.0 mg/kg/injection, schedule: Q01DX009 (ip), vehicle: saline
[2] = dose: 100.0 mg/kg/injection, schedule: Q04DX003 (ip), vehicle: saline
[3] = dose: 200.0 mg/kg/injection, schedule: Q01DX009 (ip), vehicle: saline
[4] = dose: 200.0 mg/kg/injection, schedule: Q04DX003 (ip), vehicle: saline
[5] = dose: 400.0 mg/kg/injection, schedule: Q04DX003 (ip), vehicle: saline
[6] = dose: 100.0 mg/kg/injection, schedule: Q04DX003 (ip), vehicle: Klucel (hydroxypropylcellulose) (HPC)
[7] = dose: 200.0 mg/kg/injection, schedule: Q04DX003 (ip), vehicle: Klucel (hydroxypropylcellulose) (HPC)
[8] = dose: 400.0 mg/kg/injection, schedule: Q04DX003 (ip), vehicle: Klucel (hydroxypropylcellulose) (HPC)
[9] = dose: 100.0 mg/kg/injection, schedule: Q04DX003 (ip), vehicle: saline with Tween-80
[10] = dose: 200.0 mg/kg/injection, schedule: Q04DX003 (ip), vehicle: saline with Tween-80
[11] = dose: 400.0 mg/kg/injection, schedule: Q04DX003 (ip), vehicle: saline with Tween-80
[12] = dose: 100.0 mg/kg/injection, schedule: Q01DX001 (ip), vehicle: saline
[13] = dose: 200.0 mg/kg/injection, schedule: Q01DX001 (ip), vehicle: saline
[14] = dose: 400.0 mg/kg/injection, schedule: Q01DX001 (ip), vehicle: saline

Measured: T/C

C1CC2C(CCCC23OCCO3)C2(C1)OCCO2 (configuration not stated)
inactive: [1] 115 % of control and 111 % of control | [2] 94 % of control and 99 % of control | [3] 122 % of control and 107 % of control | [4] 112 % of control and 101 % of control | dose: 400.0 mg/kg/injection, schedule: Q01DX009 (ip), vehicle: saline 108 % of control and 98 % of control | [5] 109 % of control and 97 % of control

CCCCCCCCC(CCCCCCCC)CC1CC2CC1C1CCCC21 (configuration not stated)
inactive: dose: 75.0 mg/kg/injection, schedule: Q01DX001 (ip), vehicle: saline with Tween-80 92 % of control | dose: 150.0 mg/kg/injection, schedule: Q01DX001 (ip), vehicle: saline with Tween-80 98 % of control | dose: 300.0 mg/kg/injection, schedule: Q01DX001 (ip), vehicle: saline with Tween-80 95 % of control

O=C1CCCCC1C(=O)C(F)(F)C(F)(F)C(F)(F)F (configuration not stated)
inactive: dose: 90.0 mg/kg/injection, schedule: Q01DX Z (ip), vehicle: methylcellulose (MC) 97 % of control | dose: 150.0 mg/kg/injection, schedule: Q01DX Z (ip), vehicle: methylcellulose (MC) 102 % of control | dose: 222.0 mg/kg/injection, schedule: Q01DX Z (ip), vehicle: methylcellulose (MC) 97 % of control | dose: 333.0 mg/kg/injection, schedule: Q01DX Z (ip), vehicle: methylcellulose (MC) 102 % of control

O=C1c2ccccc2C(=O)N1Cc1cccc([N+](=O)[O-])c1
inactive: dose: 12.5 mg/kg/injection, schedule: Q01DX009 (ip), vehicle: Klucel (hydroxypropylcellulose) (HPC) 87 % of control | dose: 25.0 mg/kg/injection, schedule: Q01DX009 (ip), vehicle: Klucel (hydroxypropylcellulose) (HPC) 87 % of control | dose: 50.0 mg/kg/injection, schedule: Q01DX009 (ip), vehicle: Klucel (hydroxypropylcellulose) (HPC) 94 % of control | [6] 93 % of control | [7] 97 % of control | [8] 90 % of control

CCOC(=O)c1nc(N)n[nH]1
inactive: [9] 106 % of control | [10] 104 % of control | [11] 101 % of control

Fc1c(F)c(F)c([Si](c2c(F)c(F)c(F)c(F)c2F)(c2c(F)c(F)c(F)c(F)c2F)c2c(F)c(F)c(F)c(F)c2F)c(F)c1F
inactive: dose: 100.0 mg/kg/injection, schedule: Q01DX001 (ip), vehicle: saline with Tween-80 96 % of control | dose: 200.0 mg/kg/injection, schedule: Q01DX001 (ip), vehicle: saline with Tween-80 91 % of control | dose: 400.0 mg/kg/injection, schedule: Q01DX001 (ip), vehicle: saline with Tween-80 86 % of control

CCOC(=O)C1CSCC1=O (configuration not stated)
inactive: dose: 25.0 mg/kg/injection, schedule: Q01DX009 (ip), vehicle: water 97 % of control | dose: 50.0 mg/kg/injection, schedule: Q01DX009 (ip), vehicle: water 90 % of control | dose: 100.0 mg/kg/injection, schedule: Q01DX009 (ip), vehicle: water 104 % of control

Cc1ccc(N2C(=O)C=CC2=O)cc1
inactive: dose: 100.0 mg/kg/injection, schedule: Q04DX003 (ip), vehicle: acetone 97 % of control | dose: 200.0 mg/kg/injection, schedule: Q04DX003 (ip), vehicle: acetone 92 % of control | dose: 400.0 mg/kg/injection, schedule: Q04DX003 (ip), vehicle: acetone 86 % of control

CC(O)(CCc1ccccc1)CC(O)(C(F)(F)F)C(F)(F)F (configuration not stated)
inactive: [9] 101 % of control | [10] 94 % of control | [11] 95 % of control

N#CC(=C1c2ccccc2-c2ccccc21)c1ccccc1
inactive: [6] 100 % of control | [7] 105 % of control | [8] 98 % of control

CC(=S)c1ccccc1
inactive: dose: 50.0 mg/kg/injection, schedule: Q04DX003 (ip), vehicle: Klucel (hydroxypropylcellulose) (HPC) 102 % of control | [6] 107 % of control | [7] 92 % of control | [8] 97 % of control

COC(=O)CC[S+](C)CCC(=O)OC
inactive: dose: 7.5 mg/kg/injection, schedule: Q04DX003 (ip), vehicle: saline 100 % of control | dose: 15.0 mg/kg/injection, schedule: Q04DX003 (ip), vehicle: saline 107 % of control | dose: 30.0 mg/kg/injection, schedule: Q04DX003 (ip), vehicle: saline 105 % of control

COc1ccc(C)cc1CCCO
inactive: dose: 50.0 mg/kg/injection, schedule: Q01DX001 (ip), vehicle: saline 101 % of control | [12] 101 % of control | [13] 101 % of control | [14] 93 % of control

O=C(Cc1ccccc1)c1ccc(N2CCOCC2)cc1
inactive: [12] 89 % of control | [14] 86 % of control

c1ccc(OC2COC(Oc3ccccc3)CO2)cc1 (configuration not stated)
inactive: [12] 97 % of control | dose: 100.0 mg/kg/injection, schedule: Q01DX009 (ip), vehicle: acetone 97 % of control | [2] 103 % of control | [13] 87 % of control | dose: 200.0 mg/kg/injection, schedule: Q01DX009 (ip), vehicle: acetone 92 % of control | [4] 97 % of control | [14] 90 % of control | dose: 400.0 mg/kg/injection, schedule: Q01DX009 (ip), vehicle: acetone 87 % of control | [5] 95 % of control

CC(=O)OCC1OC(n2cc(C)c(=O)[nH]c2=O)C(NC(=O)C(Cl)(Cl)Cl)C(OC(C)=O)C1OC(C)=O (configuration not stated)
inactive: dose: 50.0 mg/kg/injection, schedule: Q01DX001 (ip), vehicle: carboxymethylcellulose (CMC) 105 % of control | dose: 100.0 mg/kg/injection, schedule: Q01DX001 (ip), vehicle: carboxymethylcellulose (CMC) 96 % of control | dose: 200.0 mg/kg/injection, schedule: Q01DX001 (ip), vehicle: carboxymethylcellulose (CMC) 100 % of control | dose: 400.0 mg/kg/injection, schedule: Q01DX001 (ip), vehicle: carboxymethylcellulose (CMC) 103 % of control

OCCOCC12c3ccccc3C3C(c4ccccc41)C32 (configuration not stated)
inactive: dose: 50.0 mg/kg/injection, schedule: Q04DX002 (ip), vehicle: saline with Tween-80 90 % of control | dose: 200.0 mg/kg/injection, schedule: Q04DX002 (ip), vehicle: saline with Tween-80 96 % of control

CCCCCCCCCCCCCCCCCC1=NC(C)CC(C)(C)O1 (configuration not stated)
inactive: dose: 50.0 mg/kg/injection, schedule: Q01DX009 (ip), vehicle: saline 93 % of control | [12] 89 % of control | [1] 94 % of control | [2] 86 % of control | [13] 95 % of control | [3] 96 % of control | [4] 94 % of control | [14] 91 % of control

O=C(CCC(C(=O)Nc1ccccc1)C(O)(c1ccccc1)c1ccccc1)Nc1ccccc1 (configuration not stated)
inactive: dose: 100.0 mg/kg/injection, schedule: Q01DX001 (ip), vehicle: other 91 % of control | dose: 200.0 mg/kg/injection, schedule: Q01DX001 (ip), vehicle: other 91 % of control | dose: 400.0 mg/kg/injection, schedule: Q01DX001 (ip), vehicle: other 89 % of control

NC(=S)Nc1cccc(O)c1
inactive: dose: 100.0 mg/kg/injection, schedule: Q01DX009 (ip), vehicle: gum acacia 96 % of control | dose: 100.0 mg/kg/injection, schedule: Q04DX003 (ip), vehicle: gum acacia 92 % of control | dose: 200.0 mg/kg/injection, schedule: Q01DX009 (ip), vehicle: gum acacia 87 % of control | dose: 200.0 mg/kg/injection, schedule: Q04DX003 (ip), vehicle: gum acacia 92 % of control | dose: 400.0 mg/kg/injection, schedule: Q01DX009 (ip), vehicle: gum acacia 87 % of control | dose: 400.0 mg/kg/injection, schedule: Q04DX003 (ip), vehicle: gum acacia 92 % of control
